Laboratory results as given in patent US10167262B2, “Herbicidal substituted 3-arylpyrazoles” (FMC CORPORATION, priority 2014, dated 2019).

Key:
Test in all cases: Test C postemergence greenhouse test, plant response rating 0-100
Type in all cases: in vivo
[1] = tested on: goosegrass (Eleusine indica)
How it was run: (§1)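 Postemergence spray onto 1–4-leaf potted seedlings, greenhouse incubation 13–15 days. Visual percent-control rating (0–100) against untreated plants.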

[2] = tested on: downy bromegrass (Bromus tectorum)
How it was run: as §1

[3] = tested on: deadnettle (henbit deadnettle, Lamium amplexicaule)
How it was run: as §1

[4] = tested on: windgrass (Apera spica-venti)
How it was run: as §1

[5] = tested on: green foxtail (Setaria viridis)
How it was run: as §1

[6] = tested on: cocklebur (common cocklebur, Xanthium strumarium)
How it was run: as §1

[7] = tested on: woolly cupgrass (Eriochloa villosa)
How it was run: as §1

[8] = tested on: surinam grass (Brachiaria decumbens)
How it was run: as §1

[9] = tested on: canarygrass (Phalaris minor)
How it was run: as §1

[10] = tested on: winter barley (Hordeum vulgare)
How it was run: as §1

[11] = tested on: bermudagrass (Cynodon dactylon)
How it was run: as §1

CCn1cc(C(=O)c2ccccc2)c(-c2cc(Cl)cc(Cl)c2)n1 [Compound 31, [3-(3,5-dichlorophenyl)-1-ethyl-1H-pyrazol-4-yl]phenylmethanone]
Plant response rating, Goosegrass ([1]; 16 g ai/ha): 0 | Plant response rating (0 to 100), Goosegrass ([1]; 31 g ai/ha): 0 | Plant response rating (0 to 100), Goosegrass ([1]; 62 g ai/ha): 0 | Plant response rating (0 to 100), Goosegrass ([1]; 125 g ai/ha): 0 | Plant response rating, Bromegrass, Downy ([2]; 16 g ai/ha): 0 | Plant response rating (0 to 100), Bromegrass, Downy ([2]; 31 g ai/ha): 0 | Plant response rating (0 to 100), Bromegrass, Downy ([2]; 62 g ai/ha): 0 | Plant response rating (0 to 100), Bromegrass, Downy ([2]; 125 g ai/ha): 0 | Plant response rating, Deadnettle ([3]; 16 g ai/ha): 0 | Plant response rating (0 to 100), Deadnettle ([3]; 31 g ai/ha): 0 | Plant response rating (0 to 100), Deadnettle ([3]; 62 g ai/ha): 0 | Plant response rating (0 to 100), Deadnettle ([3]; 125 g ai/ha): 10 | Plant response rating, Windgrass ([4]; 16 g ai/ha): 0 | Plant response rating (0 to 100), Windgrass ([4]; 62 g ai/ha): 0 | Plant response rating (0 to 100), Windgrass ([4]; 125 g ai/ha): 0 | Plant response rating, Foxtail, Green ([5]; 16 g ai/ha): 0 | Plant response rating (0 to 100), Foxtail, Green ([5]; 31 g ai/ha): 0 | Plant response rating (0 to 100), Foxtail, Green ([5]; 62 g ai/ha): 0 | Plant response rating (0 to 100), Foxtail, Green ([5]; 125 g ai/ha): 0 | Plant response rating, Cocklebur ([6]; 16 g ai/ha): 10 | Plant response rating (0 to 100), Cocklebur ([6]; 31 g ai/ha): 20 | Plant response rating (0 to 100), Cocklebur ([6]; 62 g ai/ha): 20 | Plant response rating (0 to 100), Cocklebur ([6]; 125 g ai/ha): 25 | Plant response rating, Cupgrass, Woolly ([7]; 16 g ai/ha): 5 | Plant response rating (0 to 100), Cupgrass, Woolly ([7]; 31 g ai/ha): 5 | Plant response rating (0 to 100), Cupgrass, Woolly ([7]; 62 g ai/ha): 5 | Plant response rating (0 to 100), Cupgrass, Woolly ([7]; 125 g ai/ha): 5 | Plant response rating, Surinam Grass ([8]; 16 g ai/ha): 5 | Plant response rating (0 to 100), Surinam Grass ([8]; 62 g ai/ha): 5 | Plant response rating (0 to 100), Surinam Grass ([8]; 125 g ai/ha): 5 | Plant response rating, Canarygrass ([9]; 16 g ai/ha): 0 | Plant response rating (0 to 100), Canarygrass ([9]; 31 g ai/ha): 0 | Plant response rating (0 to 100), Canarygrass ([9]; 62 g ai/ha): 0 | Plant response rating (0 to 100), Canarygrass ([9]; 125 g ai/ha): 0 | Plant response rating, Barley ([10]; 16 g ai/ha): 0 | Plant response rating (0 to 100), Barley ([10]; 31 g ai/ha): 0 | Plant response rating (0 to 100), Barley ([10]; 62 g ai/ha): 0 | Plant response rating (0 to 100), Barley ([10]; 125 g ai/ha): 0 | Plant response rating, Bermudagrass ([11]; 16 g ai/ha): 0 | Plant response rating (0 to 100), Bermudagrass ([11]; 31 g ai/ha): 0 | Plant response rating (0 to 100), Bermudagrass ([11]; 62 g ai/ha): 0 | Plant response rating (0 to 100), Bermudagrass ([11]; 125 g ai/ha): 0

CCn1cc(C(=NN2CCCC2)c2ccccc2)c(-c2cc(Cl)cc(Cl)c2)n1 [Compound 37]
Plant response rating (0 to 100), Goosegrass ([1]; 31 g ai/ha): 0 | Plant response rating (0 to 100), Goosegrass ([1]; 62 g ai/ha): 0 | Plant response rating (0 to 100), Goosegrass ([1]; 125 g ai/ha): 0 | Plant response rating, Goosegrass ([1]; 250 g ai/ha, scale 0 to 100): 0 | Plant response rating (0 to 100), Bromegrass, Downy ([2]; 31 g ai/ha): 0 | Plant response rating (0 to 100), Bromegrass, Downy ([2]; 62 g ai/ha): 0 | Plant response rating (0 to 100), Bromegrass, Downy ([2]; 125 g ai/ha): 0 | Plant response rating, Bromegrass, Downy ([2]; 250 g ai/ha, scale 0 to 100): 0 | Plant response rating (0 to 100), Deadnettle ([3]; 31 g ai/ha): 0 | Plant response rating (0 to 100), Deadnettle ([3]; 62 g ai/ha): 0 | Plant response rating (0 to 100), Deadnettle ([3]; 125 g ai/ha): 0 | Plant response rating, Deadnettle ([3]; 250 g ai/ha, scale 0 to 100): 0 | Plant response rating (0 to 100), Windgrass ([4]; 62 g ai/ha): 0 | Plant response rating (0 to 100), Windgrass ([4]; 125 g ai/ha): 0 | Plant response rating, Windgrass ([4]; 250 g ai/ha, scale 0 to 100): 0 | Plant response rating (0 to 100), Foxtail, Green ([5]; 31 g ai/ha): 0 | Plant response rating (0 to 100), Foxtail, Green ([5]; 62 g ai/ha): 0 | Plant response rating (0 to 100), Foxtail, Green ([5]; 125 g ai/ha): 0 | Plant response rating, Foxtail, Green ([5]; 250 g ai/ha, scale 0 to 100): 0 | Plant response rating (0 to 100), Cocklebur ([6]; 31 g ai/ha): 5 | Plant response rating (0 to 100), Cocklebur ([6]; 62 g ai/ha): 10 | Plant response rating (0 to 100), Cocklebur ([6]; 125 g ai/ha): 15 | Plant response rating, Cocklebur ([6]; 250 g ai/ha, scale 0 to 100): 20 | Plant response rating (0 to 100), Cupgrass, Woolly ([7]; 31 g ai/ha): 5 | Plant response rating (0 to 100), Cupgrass, Woolly ([7]; 62 g ai/ha): 5 | Plant response rating (0 to 100), Cupgrass, Woolly ([7]; 125 g ai/ha): 5 | Plant response rating, Cupgrass, Woolly ([7]; 250 g ai/ha, scale 0 to 100): 5 | Plant response rating (0 to 100), Surinam Grass ([8]; 62 g ai/ha): 0 | Plant response rating (0 to 100), Surinam Grass ([8]; 125 g ai/ha): 0 | Plant response rating, Surinam Grass ([8]; 250 g ai/ha, scale 0 to 100): 0 | Plant response rating (0 to 100), Canarygrass ([9]; 31 g ai/ha): 0 | Plant response rating (0 to 100), Canarygrass ([9]; 62 g ai/ha): 0 | Plant response rating (0 to 100), Canarygrass ([9]; 125 g ai/ha): 0 | Plant response rating, Canarygrass ([9]; 250 g ai/ha, scale 0 to 100): 0 | Plant response rating (0 to 100), Barley ([10]; 31 g ai/ha): 0 | Plant response rating (0 to 100), Barley ([10]; 62 g ai/ha): 0 | Plant response rating (0 to 100), Barley ([10]; 125 g ai/ha): 0 | Plant response rating, Barley ([10]; 250 g ai/ha, scale 0 to 100): 0 | Plant response rating (0 to 100), Bermudagrass ([11]; 31 g ai/ha): 0 | Plant response rating (0 to 100), Bermudagrass ([11]; 62 g ai/ha): 0 | Plant response rating (0 to 100), Bermudagrass ([11]; 125 g ai/ha): 0 | Plant response rating, Bermudagrass ([11]; 250 g ai/ha, scale 0 to 100): 0
